What was measured:
DAT = conditions: cited from earlier work; for IC50: read-out: DAT IC50, oxatropenes substituted at the C3 position
SERT = conditions: cited from earlier work
[1] = target: human dopamine transporter (hDAT) (Macaca fascicularis, UniProt Q9GJT6); assay: Inhibition of [3H]WIN35,428 binding to the dopamine transporter; conditions: DAT over SERT
Chain of human dopamine transporter (hDAT) (Q9GJT6 whole entry): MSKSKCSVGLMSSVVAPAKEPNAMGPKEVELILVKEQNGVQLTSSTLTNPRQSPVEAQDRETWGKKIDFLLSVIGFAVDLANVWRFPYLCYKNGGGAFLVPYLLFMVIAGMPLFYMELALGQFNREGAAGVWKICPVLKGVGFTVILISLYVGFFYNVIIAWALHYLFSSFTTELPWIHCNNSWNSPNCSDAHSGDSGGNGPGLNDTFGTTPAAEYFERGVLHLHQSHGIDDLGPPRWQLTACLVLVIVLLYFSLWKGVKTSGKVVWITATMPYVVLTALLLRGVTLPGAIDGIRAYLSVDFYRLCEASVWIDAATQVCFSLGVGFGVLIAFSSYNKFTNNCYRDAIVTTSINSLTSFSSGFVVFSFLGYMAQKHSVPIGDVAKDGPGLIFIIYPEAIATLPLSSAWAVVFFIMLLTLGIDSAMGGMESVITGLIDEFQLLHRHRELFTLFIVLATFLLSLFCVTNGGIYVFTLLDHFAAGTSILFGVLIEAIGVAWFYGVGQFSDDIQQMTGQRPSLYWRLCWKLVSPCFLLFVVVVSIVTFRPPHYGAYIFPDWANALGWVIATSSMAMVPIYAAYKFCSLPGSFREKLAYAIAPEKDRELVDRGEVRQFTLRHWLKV

2β-Carbomethoxy-3 β-[2-furylphenyl]-8-azabicyclo[3.2.1]tropane
DAT binding (DAT; reported by Tamagnan et al): 3.76 nM | SERT binding (SERT; reported by Tamagnan et al): 0.15 nM

2β-carbomethoxy-3β-(2-naphthyl)-8-aza-bicyclo[3.2.1]octanes
inhibition of DAT (DAT): 0.49 nM | inhibition of SERT (SERT): 2.19 nM

COC(=O)C1=C(c2cccc3ccccc23)CC2CCC1O2 (centres unmarked) [oxatropene with 1-naphthyl]
IC50 (DAT): 1.72 µM

COC(=O)C1=C(c2ccc3cc4ccccc4cc3c2)CC2CCC1O2 (centres unmarked) [oxatropene with 2-anthracenyl]
IC50 (DAT): > 40 µM

COC(=O)C1=C(c2ccc3ccccc3c2)CC2CCC1O2 (centres unmarked) [oxatropene with 2-naphthyl]
IC50 (DAT): 0.02 µM

(R,S)-3-[2-Benzothiophen-2-yl] -8-oxa-bicyclo[3.2.1]oct-2-ene-2carboxylic acid methyl ester [14m]
selectivity for DAT vs. SERT [1]: 177 fold
